For 34 compounds, IC50 results are on record in patent US20160237059A1, “HETEROCYCLIC SUBSTITUTED TRIFLUOROMETHYL PYRIMIDINONES AND THEIR USE” (BAYER PHARMA AKTIENGESELLSCHAFT, priority 2013, published 2016).

In general, pIC50 refers to the negative decadic logarithm of the IC50, by convention in mol/L. Read a low pIC50 as a large IC50.

pIC50: −log10 of the molar value.

Assay [1] concerns the target T1, murine CCR2 (Mus musculus, UniProt P51683).
T1 construct: host or cells: U2OS β-arrestin cell line
Description: Functional β-arrestin recruiting test with murine MCP-1 (B-2b). It counts as cell-based. As to conditions: U2OS β-arrestin cell line transfected with murine CCR2; agonist murine MCP-1; in some cases means of several determinations. The method in brief: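 In a PathHunter β-galactosidase complementation assay, U2OS cells expressing murine CCR2 were preincubated 10 min with compound (10-point, 1:3.16 dilutions), then challenged with murine MCP-1 at its predetermined EC50 for 90 min at 37 °C. Luminescence was read after 60 min, and IC50 was fitted with a 4-parameter Hill function.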
(Recruitment of arrestin is a read-out of receptor activation apart from second messengers.)

For assay [2], the target named is T2, human CCR2 (Homo sapiens, UniProt P41597).
T2 construct: host or cells: Chem-1 cell line
T2 sequence (P41597 1-360 isoform P41597-2): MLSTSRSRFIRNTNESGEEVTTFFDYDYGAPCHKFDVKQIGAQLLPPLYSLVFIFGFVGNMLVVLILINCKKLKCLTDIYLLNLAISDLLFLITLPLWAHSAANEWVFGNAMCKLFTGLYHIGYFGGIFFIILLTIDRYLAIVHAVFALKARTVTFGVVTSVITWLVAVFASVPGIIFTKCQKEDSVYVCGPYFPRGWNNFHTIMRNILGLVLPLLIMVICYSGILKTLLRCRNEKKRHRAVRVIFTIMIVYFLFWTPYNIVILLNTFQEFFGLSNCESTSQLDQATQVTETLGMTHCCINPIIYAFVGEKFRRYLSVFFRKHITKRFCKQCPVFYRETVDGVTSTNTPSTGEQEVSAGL
Description: Functional Ca2+ release test (B-1). As to conditions: Chem-1 cell line transfected with human CCR2; 50% inhibition of the MCP-1 effect, MCP-1 at EC50 (about 5 nM); in some cases means of several determinations. The assay is classed as cell-based. The essentials:
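Inhibition of MCP-1-evoked Ca2+ release was measured over 120 s by fluorescence imaging in Fluo-4-loaded, human CCR2-transfected Chem-1 cells. Compounds, tested in 10-point 1:3.16 series, were added 10 min before agonist at its EC50 (typically about 5 nM). IC50 values were obtained by 4-parameter logistic fitting.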

T1 sequence (P51683 whole entry): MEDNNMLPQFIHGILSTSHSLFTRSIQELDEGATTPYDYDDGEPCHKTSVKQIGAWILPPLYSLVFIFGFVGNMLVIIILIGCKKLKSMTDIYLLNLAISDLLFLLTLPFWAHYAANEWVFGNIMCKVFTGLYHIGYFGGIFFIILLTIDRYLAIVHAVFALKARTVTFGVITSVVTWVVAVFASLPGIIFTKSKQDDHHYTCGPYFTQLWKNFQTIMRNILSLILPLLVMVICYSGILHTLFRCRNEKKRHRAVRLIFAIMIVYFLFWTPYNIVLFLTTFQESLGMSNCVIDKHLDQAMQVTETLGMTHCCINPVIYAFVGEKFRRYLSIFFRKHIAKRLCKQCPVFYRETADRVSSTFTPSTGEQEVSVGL

As to `O=c1[nH]c(-c2ncccc2Br)nc(C(F)(F)F)c1Oc1ccc(Cl)c(Cl)c1` [Example 181, 2-(3-bromopyridin-2-yl)-5-(3,4-dichlorophenoxy)-6-(trifluoromethyl)pyrimidin-4(3H)-one], the pIC50 was 8.10 in assay [1] and 9.15 in assay [2].
For the compound `O=c1[nH]c(-c2ncccc2Br)nc(C(F)(F)F)c1Oc1ccc(Cl)c(C(F)(F)F)c1` [Example 182, 2-(3-bromopyridin-2-yl)-5-[4-chloro-3-(trifluoromethyl)phenoxy]-6-(trifluoromethyl)pyrimidin-4(3H)-one], the pIC50 in assay [1] was 8.08; in assay [2], 9.52.
Take `COc1cc(C)nc(-c2nc(C(F)(F)F)c(Oc3ccc(Cl)c(Cl)c3)c(=O)[nH]2)n1` [Example 183, 5-(3,4-dichlorophenoxy)-4′-methoxy-6′-methyl-6-(trifluoromethyl)-2,2′-bipyrimidin-4(3H)-one]: the pIC50 in assay [1] is 6.84; in assay [2], 8.54.
Taken in the same sequence, the figures for `COc1cc(C)nc(-c2nc(C(F)(F)F)c(Oc3ccc(Cl)c(C(F)(F)F)c3)c(=O)[nH]2)n1` [Example 184, 5-[4-chloro-3-(trifluoromethyl)phenoxy]-4′-methoxy-6′-methyl-6-(trifluoromethyl)-2,2′-bipyrimidin-4(3H)-one] were 6.66 and 9.10.
Taken in the same sequence, the figures for `O=c1[nH]c(-c2ncccc2C(F)(F)F)nc(C(F)(F)F)c1Oc1ccc(Cl)c(Cl)c1` [Example 185, 5-(3,4-dichlorophenoxy)-6-(trifluoromethyl)-2-[3-(trifluoromethyl)pyridin-2-yl]pyrimidin-4(3H)-one] were 6.39 and 7.57.
The like results for `O=c1[nH]c(-c2ncccc2C(F)(F)F)nc(C(F)(F)F)c1Oc1ccc(Cl)c(C(F)(F)F)c1` [Example 186, 5-[4-chloro-3-(trifluoromethyl)phenoxy)-6-(trifluoromethyl)-2-[3-(trifluoromethyl)pyridin-2-yl]pyrimidin-4(3H)-one] were, in that order, 6.29 and 8.32.
Regarding `O=c1[nH]c(-c2ncccc2-c2ccccc2)nc(C(F)(F)F)c1Oc1ccc(Cl)c(Cl)c1` [Example 187, 5-(3,4-dichlorophenoxy)-2-(3-phenylpyridin-2-yl)-6-(trifluoromethyl)pyrimidin-4(3H)-one], the figures for the pIC50 in assay [1] and in assay [2] were 5.80 and 7.80, respectively.
As to `O=c1[nH]c(-c2ncccc2-c2ccccc2)nc(C(F)(F)F)c1Oc1ccc(Cl)c(C(F)(F)F)c1` [Example 188, 5-[4-chloro-3-(trifluoromethyl)phenoxy]-2-(3-phenylpyridin-2-yl)-6-(trifluoromethyl)pyrimidin-4(3H)-one], the pIC50 was 6.08 in assay [1] and 8.82 in assay [2].
Regarding `CC(C)(C)Sc1cccnc1-c1nc(C(F)(F)F)c(Oc2ccc(Cl)c(Cl)c2)c(=O)[nH]1` [Example 189], the pIC50 is 5.99 in assay [1] and 7.28 in assay [2].
Regarding `CC(C)(C)Sc1cccnc1-c1nc(C(F)(F)F)c(Oc2ccc(Cl)c(C(F)(F)F)c2)c(=O)[nH]1` [Example 190], the pIC50 in assay [1] was 5.68; in assay [2], 7.21.
The like results for `CSc1ccnc(-c2nc(C(F)(F)F)c(Oc3ccc(Cl)c(C(F)(F)F)c3)c(=O)[nH]2)c1` [Example 191, 5-[4-chloro-3-(trifluoromethyl)phenoxy)-2-[4-(methylsulphanyl)pyridin-2-yl]-6-(trifluoromethyl)pyrimidin-4(3H)-one] were, in that order, 6.16 and 8.30.
For `CSc1ccnc(-c2nc(C(F)(F)F)c(Oc3ccc(Cl)c(Cl)c3)c(=O)[nH]2)c1` [Example 192, 5-(3,4-dichlorophenoxy)-2-[4-(methylsulphanyl)pyridin-2-yl]-6-(trifluoromethyl)pyrimidin-4(3H)-one], the negative logarithm of the IC50 (pIC50) in assay [1] was 6.12; in assay [2], 7.96.
On to `Cc1ccc(-c2nc(C(F)(F)F)c(Oc3ccc(Cl)c(C(F)(F)F)c3)c(=O)[nH]2)nc1` [Example 193, 5-[4-chloro-3-(trifluoromethyl)phenoxy]-2-(5-methylpyridin-2-yl)-6-(trifluoromethyl)pyrimidin-4(3H)-one], for which the pIC50 in assay [1] is 7.10; in assay [2], 9.15.
As for `COc1cccnc1-c1nc(C(F)(F)F)c(Oc2ccc(Cl)c(C)c2)c(=O)[nH]1` [Example 194, 5-(4-chloro-3-methylphenoxy)-2-(3-methoxypyridin-2-yl)-6-(trifluoromethyl)pyrimidin-4(3H)-one], the values for the pIC50 in assay [1] and in assay [2] were 7.23 and 9.52, respectively.
`O=c1[nH]c(-c2ccc(Cl)cn2)nc(C(F)(F)F)c1Oc1ccc(Cl)c(C(F)(F)F)c1` [Example 195, 2-(5-chloropyridin-2-yl)-5-[4-chloro-3-(trifluoromethyl)phenoxy]-6-(trifluoromethyl)pyrimidin-4(3H)-one]: the pIC50 in assay [1] is 6.80; in assay [2] it was 8.96.
Regarding `COc1cccnc1-c1nc(C(F)(F)F)c(Oc2ccc(C)c(Cl)c2)c(=O)[nH]1` [Example 196, 5-(3-chloro-4-methylphenoxy)-2-(3-methoxypyridin-2-yl)-6-(trifluoromethyl)pyrimidin-4(3H)-one], the pIC50 was 6.23 in assay [1] and 8.77 in assay [2].
Consider `Cc1cc(Oc2c(C(F)(F)F)nc(-c3ncccc3Cl)[nH]c2=O)ccc1Cl` [Example 197, 5-(4-chloro-3-methylphenoxy)-2-(3-chloropyridin-2-yl)-6-(trifluoromethyl)pyrimidin-4(3H)-one], for which the results for the pIC50 in assay [1] and in assay [2] were 7.08 and 8.89, respectively.
Taken in the same sequence, the figures for `CC(=O)Nc1ccc(-c2nc(C(F)(F)F)c(Oc3ccc(Cl)c(C(F)(F)F)c3)c(=O)[nH]2)nc1` [Example 199] were 6.96 and 9.22.
As for `CN(C)c1ccc(-c2nc(C(F)(F)F)c(Oc3ccc(Cl)c(Cl)c3)c(=O)[nH]2)nn1` [Example 200], the figures for the pIC50 in assay [1] and in assay [2] were 6.44 and 8.92, respectively.
With `CN(C)c1ccc(-c2nc(C(F)(F)F)c(Oc3ccc(Cl)c(C(F)(F)F)c3)c(=O)[nH]2)nn1` [Example 201], the pIC50 in assay [1] is 6.52; in assay [2] it was 9.15.
With `CC(=O)Nc1ccc(-c2nc(C(F)(F)F)c(Oc3ccc(Cl)c(Cl)c3)c(=O)[nH]2)nc1` [Example 202], the pIC50 is 6.67 in assay [1] and 9.05 in assay [2].
For the compound `O=c1[nH]c(-c2ncccc2OC(F)(F)F)nc(C(F)(F)F)c1Oc1ccc(Cl)c(Cl)c1` [Example 203], the pIC50 is 6.37 in assay [1] and 7.82 in assay [2].
As to `O=c1[nH]c(-c2ncccc2OC(F)(F)F)nc(C(F)(F)F)c1Oc1ccc(Cl)c(C(F)(F)F)c1` [Example 204], the pIC50 was 6.55 in assay [1] and 8.04 in assay [2].
As to `Cn1nc(-c2nc(C(F)(F)F)c(Oc3ccc(Cl)c(Cl)c3)c(=O)[nH]2)c2cccnc21` [Example 205], the pIC50 was 5.60 in assay [1] and 7.59 in assay [2].
`Cn1nc(-c2nc(C(F)(F)F)c(Oc3ccc(Cl)c(C(F)(F)F)c3)c(=O)[nH]2)c2cccnc21` [Example 206]: the pIC50 is 5.70 in assay [1] and 7.92 in assay [2].
For the compound `COc1ccc2c(-c3nc(C(F)(F)F)c(Oc4ccc(Cl)c(C(F)(F)F)c4)c(=O)[nH]3)noc2c1` [Example 207], the pIC50 in assay [1] is 5.35; in assay [2] it was 7.09.
With `COc1ccc2c(-c3nc(C(F)(F)F)c(Oc4ccc(Cl)c(Cl)c4)c(=O)[nH]3)noc2c1` [Example 208], the negative-log IC50 (pIC50) in assay [1] was 5.02; in assay [2], 7.11.
As to `CC(=O)Nc1ccc2c(-c3nc(C(F)(F)F)c(Oc4ccc(Cl)c(C(F)(F)F)c4)c(=O)[nH]3)noc2c1` [Example 209], the pIC50 is 6.43 in assay [1] and 7.66 in assay [2].
For the compound `O=c1[nH]c(-c2ncccc2Cl)nc(C(F)(F)F)c1Oc1ccc(Cl)cc1` [Example 210], the pIC50 in assay [1] is 6.46; in assay [2], 8.52.
With `O=c1[nH]c(-c2ncccc2Cl)nc(C(F)(F)F)c1Cc1ccc(Cl)cc1` [Example 211], the pIC50 is 6.52 in assay [1] and 8.82 in assay [2].
Taken in the same sequence, the figures for `Cc1cnc(-c2nc(C(F)(F)F)c(Oc3ccc(Cl)c(Cl)c3)c(=O)[nH]2)cc1C` [Example 212] were 5.77 and 8.59.
`COc1c[nH]nc1-c1nc(C(F)(F)F)c(Oc2ccc(Cl)c(Cl)c2)c(=O)[nH]1` [Example 213]: the pIC50 is 7.31 in assay [1] and 9.22 in assay [2].
As to `COc1c[nH]nc1-c1nc(C(F)(F)F)c(Oc2ccc(Cl)c(C(F)(F)F)c2)c(=O)[nH]1` [Example 214, 5-[4-chloro-3-(trifluoromethyl)phenoxy)-2-(4-methoxy-1H-pyrazol-3-yl)-6-(trifluoromethyl)pyrimidin-4(3H)-one], the negative-log IC50 (pIC50) was 8.07 in assay [1] and 9.22 in assay [2].
With `CCCc1cc(-c2nc(C(F)(F)F)c(Oc3ccc(Cl)c(Cl)c3)c(=O)[nH]2)no1` [Example 215], the pIC50 was 5.94 in assay [1] and 8.10 in assay [2].
